Where “and” joins values, the source holds several entries; their conditions need not be identical. Equal entries are not always repeated. Values belong to the compound of their own block, whether it stands above or below them.
What was measured:
Type in all cases: physicochemical
[1] = Leakage experiments: ethanol-induced permeabilization of LUVs; settings: DSPC/Chol/PEG-CerC14/DODAP liposomes, 40° C.
Experimental: Leakage experiments. Ethanol-induced permeabilization of LUVs was measured at different temperatures and as a function of the size (MW) of the entrapped solute. […] Leakage of calcein entrapped at self-quenching concentrations was followed by monitoring the dequenching of the calcein fluorescence. LUVs were prepared by hydration of a lipid film with an aqueous solution containing 75 mM calcein and 5 mM HEPES adjusted to pH 7.5 by addition of sodium hydroxide, followed by 5 freeze/thaw cycles and extrusion through 2 stacked 100 nm filters (10 passes). In the case of […] extrusion was performed at 60° C. Unentrapped calcein was exchanged against an isoosmotic HBS buffer by anion exchange chromatography on a DEAE Sepharose CL6B column. The liposome stock solution was diluted to a lipid concentration of 3 μM in HBS containing varying amounts of ethanol pre-equilibrated at 25, 40 or 60° C. The fluorescence at 520 nm was measured (excitation wavelength […], long-pass filter at 430 nm) with a Perkin Elmer LS50 Fluorimeter (Perkin Elmer) after 5 min of incubation at the corresponding temperature. […] The FITC/LRh-PE ratio was measured before and after addition of ethanol. FITC and LRh-PE fluorescence were measured at 515 nm and 590 nm with the excitation wavelength set to 485 nm and 560 nm, respectively.

[2] = Trapping efficiency of oligonucleotide in liposomes after anion exchange chromatography; settings: DSPC/Chol/DODAP/PEG-CerC14 liposomes; initial ATP-to-lipid ratio 0.2 mg/mg; 50 mM citrate buffer
[3] = Final drug/lipid ratio and encapsulation efficiency (E.E.)
Experimental: The procedure of Example 2 was repeated with changes to various parameters to determine which might be critical to the preparation of fully lipid-encapsulated therapeutic agent particles in accordance with the invention. In these experiments, the total oligonucleotide recovery (yield), the total lipid recovery (yield) and the encapsulation efficiency were considered as indications of the quality of the product and the process. Total oligonucleotide recovery was calculated using the formula:
[formula] Encapsulation Efficiency (E.E.) was calculated using the formula:
(§1) [formula] The percentage of oligo that is encapsulated (i.e., incorporated in bilayers or entrapped in the interior of the lipid particle) was determined with the OliGreen assay described above.

[4] = OliGreen assay: percentage of oligo that is encapsulated; settings: for Encap Oligo %: Ex. 2 procedure
Experimental: The Oligreen Assay was used to quantify the amount of oligonucleotide loaded into the vesicles. A fluorescent dye binding assay for quantifying single stranded oligonucleotide in aqueous solutions was established using a Biolumin™ 960 fluorescent plate reader (Molecular Dynamics, Sunnyvale, Calif., USA). Briefly, aliquots of encapsulated oligonucleotide were diluted in HEPES buffered saline (HBS; 20 mM HEPES, 145 mM NaCl, pH 7.5). A 10 μL aliquot of the diluted sample was added to 100 μL of a 1:200 dilution of Oligreen™ reagent, both with and without 0.1% of Triton X-100 detergent. An oligo standard curve was prepared with and without 0.1% Triton X-100 for quantification of encapsulated oligo. Fluorescence of the Oligreen™-antisense complex was measured using excitation and emission wavelengths of 485 nm and 520 nm, respectively. Surface associated antisense was determined by comparing the fluorescence measurements in the absence and presence of detergent.
as §1

[5] = Trapping efficiency of oligonucleotide in liposomes after anion exchange chromatography
Experimental: Entrapment procedure. […] At pH 7.5 DODAP becomes charge-neutral and oligonucleotides bound to the external membrane surface are released from their association with the cationic lipid. Unencapsulated oligonucleotides were subsequently removed by anion exchange chromatography on DEAE-sepharose CL-6B columns equilibrated in HBS pH 7.5. When octylglucoside was used in place of ethanol the detergent was added to liposomes (1:1 v/v) to final concentrations ranging from 30–40 mM. All the subsequent steps were performed as described above except for the initial dialysis step against pH 4 citrate buffer, which was extended to 5 hrs. In the following examples, if not otherwise mentioned, DSPC/Chol/PEG-CerC14/DODAP liposomes (20:45:10:25 mol %), c-myc (Seq. ID No. 1), 40% (v/v) ethanol, 300 mM citrate buffer and incubation at 40° C. were used.
Determination of trapping efficiencies: Trapping efficiencies were determined after removal of external oligonucleotides by anion exchange chromatography. Oligonucleotide concentrations were determined by UV-spectroscopy on a Shimadzu UV160U spectrophotometer. The absorbance at 260 nm was measured after solubilization of the samples in chloroform/methanol at a volume ratio of 1:2.1:1 chloroform/methanol/aqueous phase (sample/HBS). If the solution was not completely clear after mixing an additional 50–100 μl of methanol was added. Alternatively, absorbance was read after solubilization of the samples in 100 mM octylglucoside. The antisense concentrations were calculated according to: c [μg/μl]=A260*1 OD260 unit [μg/μl]*dilution factor [μg/μl], where the dilution factor is given by the total assay volume […] divided by the sample volume [μl]. OD260 units were calculated from pairwise extinction coefficients for individual deoxy-nucleotides, which take into account nearest neighbor interactions. 1OD corresponds to 30.97 μg/ml c-myc (Seq. ID. No 1), 33.37 μg/ml h-ICAM-1 (Seq. ID No. 2) and 34 μg/ml EGFR (Seq. ID No. 3). Lipid concentrations were determined by the inorganic phosphorus assay after separation of the lipids from the oligonucleotides by a Bligh and Dyer extraction (Bligh and Dyer, 1959). Briefly, to 250 μl of aqueous phase (sample/HBS) 525 μl methanol and 250 μl chloroform were added to form a clear single phase (aqueous phase/methanol/chlorofrom 1:2.1:1 vol). If the solution was not clear a small amount of methanol was added. Subsequently, 250 μl HBS and an equal volume of chloroform were added. The samples were mixed and centrifuged for 5–10 min at 3000 rpm. […] The chloroform phase was assayed for phospholipid content according to the method of Fiske and Subbarrow (1925). If not otherwise mentioned, trapping efficiencies were expressed as oligonucleotide-to-lipid weight ratios [w/w].

[6] = Dynamic light scattering: vesicle size; settings: for Size [nm]: DSPC/Chol/DODAP/PEG-CerC14 20/45/25/10 mol %, initial oligonucleotide-to-lipid 0.23 mg/mg, number-averaged
Experimental: Dynamic light scattering. Sizes were determined by dynamic light scattering using a NICOMP 370 particle sizer (Nicomp Particle Sizing Inc., Santa Barbara, Calif.). Throughout the application, number-averaged sizes are presented, which were obtained by a cumulant fit from the experimental correlation functions. The polydispersity is expressed as the half-width at half-height of a monomodal Gaussian size distribution. The viscosity of the ethanol/citrate buffer was determined using an Ubelohde-type viscometer (Cannon 50). […] The zeta potential was determined by electrophoretic light scattering using a Coulter light scattering instrument (DELSA, Coulter Electronics Inc., FL).

[7] = Ex. 2 procedure, initial drug/lipid ratio 0.1
[8] = Ex. 2 procedure, initial drug/lipid ratio 0.2
[9] = initial EtOH 33%, initial drug/lipid 0.2
[10] = initial EtOH 40%, initial drug/lipid 0.2
[11] = initial EtOH 43%, initial drug/lipid 0.2
[12] = citrate buffer 50 mM, initial drug/lipid 0.1
[13] = citrate buffer 100 mM, initial drug/lipid 0.1
[14] = citrate buffer 200 mM, initial drug/lipid 0.1
[15] = citrate buffer 300 mM, initial drug/lipid 0.1
[16] = incubation temp RT(20–22) °C, 1 hour
[17] = initial EtOH 36%, initial drug/lipid 0.1
[18] = initial EtOH 43%, initial drug/lipid 0.1
[19] = initial EtOH 45%, initial drug/lipid 0.1
[20] = oligo stock 10 mg/ml, initial drug/lipid 0.1
[21] = oligo stock 20 mg/ml, initial drug/lipid 0.1
[22] = oligo stock 30 mg/ml, initial drug/lipid 0.1
[23] = oligo stock 40–50 mg/ml, initial drug/lipid 0.1
[24] = 2.5 mol % PEG-CerC14, 40% ethanol, initial oligonucleotide-to-lipid 0.037 mol/mol, listed as c-myc
[25] = 5 mol % PEG-CerC14, 40% ethanol, initial oligonucleotide-to-lipid 0.037 mol/mol
[26] = 10 mol % PEG-CerC14, 40% ethanol, initial oligonucleotide-to-lipid 0.037 mol/mol, listed as c-myc
[27] = DSPC/Chol/DODAP liposomes (no modified lipid), 0% EtOH [v/v], molar ODN/lipid 0.035, pH 4
[28] = DSPC/Chol/DODAP liposomes (no modified lipid), 20% EtOH [v/v], molar ODN/lipid 0.035, pH 4
[29] = DSPC/Chol/DODAP liposomes (no modified lipid), 30% EtOH [v/v], molar ODN/lipid 0.035, pH 4

ethanol concentration at which leakage reaches a maximum [1]: around 40 % ethanol | ethanol concentration at which leakage starts [1]: ≤ 30 % ethanol
Compound: O=C(O)CN(CC(=O)O)Cc1cc2c(cc1O)Oc1cc(O)c(CN(CC(=O)O)CC(=O)O)cc1C21OC(=O)c2ccccc21 [calcein]

Compound: Nc1ncnc2c1ncn2[C@@H]1O[C@H](COP(=O)(O)OP(=O)(O)OP(=O)(O)O)[C@@H](O)[C@H]1O [ATP]
fraction entrapped [2]: less than 10%

Compound: 5′-TAACGTTGAGGGGCAT-3′ (listed as DNA, chemistry not given here) [INX-6295]
E.E. % [3, 7]: 100% | Final Drug/Lipid Ratio [3, 7]: 0.1 | Final Drug/Lipid Ratio [3, 8]: 0.17–0.2 | E.E. % [3, 9]: 60% | Final Drug/Lipid [3, 9]: 0.12 | E.E. % [3, 10]: 75% | Final Drug/Lipid [3, 10]: 0.15 | E.E. % [3, 11]: 95% | Final Drug/Lipid [3, 11]: 0.19 | Encap Oligo % ([4]; initial drug/lipid ratio 0.1): ≧90% | Encap Oligo % ([4]; initial drug/lipid ratio 0.2): ≧80% | Encapsulated Oligo % [4, 12]: 94% | Encapsulated Oligo % [4, 13]: 90% | Encapsulated Oligo % [4, 14]: 91% | Encapsulated Oligo % [4, 15]: 92% | Encaps Oligo % ([4]; incubation temp 40 °C, 1 hour): 91% | Encaps Oligo % ([4]; incubation temp 60 °C, 1 hour): 83% | Encaps Oligo % [4, 16]: 90% | Encapsulated Oligo % ([4]; incubation time 0.5 hr at 40° C.): 92% | Encapsulated Oligo % ([4]; incubation time 1 hr at 40° C.): 94% | Encapsulated Oligo % ([4]; incubation time 2 hr at 40° C.): 95% | Encaps Oligo % [4, 9]: 88% | Encaps Oligo % [4, 17]: 85–89% | Encaps Oligo % [4, 10]: 82% | Encaps Oligo % [4, 18]: 84–89% | Encaps Oligo % [4, 11]: 62% | Encaps Oligo % [4, 19]: 90–92% | Encaps Oligo % [4, 20]: 90% | Encaps Oligo % [4, 21]: 88% | Encaps Oligo % [4, 22]: 90% | Encaps Oligo % [4, 23]: 88–94% | % encapsulation [5, 24]: 45% and 45.7% | % encapsulation [5, 25]: 50.9% | % encapsulation ([5]; 10 mol % PEG-CerC14, 25% ethanol, initial oligonucleotide-to-lipid 0.037 mol/mol, listed as c-myc): 5% | % encapsulation [5, 26]: 60% and 56.5% | final antisense-to-lipid ratio ([5]; 10 mol % PEG-CerC14 liposomes, initial antisense-to-lipid weight ratio 0.29): 0.16 | % encapsulation [5, 27]: 4.4% | % encapsulation [5, 28]: 20.5% | % encapsulation [5, 29]: 32.5% | % encapsulation ([5]; OGP 30 mM in place of ethanol, DSPC/Chol/DODAP/PEG-CerC14 20/45/25/10 mol %, initial oligonucleotide-to-lipid 0.23 mg/mg): 51% | % encapsulation ([5]; OGP 35 mM in place of ethanol, DSPC/Chol/DODAP/PEG-CerC14 20/45/25/10 mol %, initial oligonucleotide-to-lipid 0.23 mg/mg): 57% | % encapsulation ([5]; OGP 40 mM in place of ethanol, DSPC/Chol/DODAP/PEG-CerC14 20/45/25/10 mol %, initial oligonucleotide-to-lipid 0.23 mg/mg): 55% | oligonucleotide molecules per 100 nm liposome ([5]; at maximum entrapment): approximately 2250 | Average size [nm] ([6]; 2.5 mol % PEG-CerC14, 25% ethanol, initial oligonucleotide-to-lipid 0.037 mol/mol): 125 ± 35 (108 ± 26) nm | Average size [nm] [6, 24]: 131±40 nm and 131 ± 40 (108 ± 26) nm | Average size [nm] [6, 25]: 126 ± 36 (107 ± 22) nm | Average size [nm] ([6]; 10 mol % PEG-CerC14, 25% ethanol, initial oligonucleotide-to-lipid 0.037 mol/mol): 92 ± 18 (93 ± 18) nm | Average size [nm] [6, 26]: 100±26 nm and 100 ± 26 (93 ± 18) nm | Average size [nm] [6, 27]: 148 ± 56 nm | Average size [nm] [6, 28]: 226 ± 104 nm | Average size [nm] [6, 29]: 470 ± 244 nm | Vesicle Size (nm) [6, 7]: 106 nm | Vesicle Size (nm) [6, 8]: 119 nm | Size [nm] ([6]; OGP 30 mM in place of ethanol): 65 ± 12 nm | Size [nm] ([6]; OGP 35 mM in place of ethanol): 100 ± 22 nm | Size [nm] ([6]; OGP 40 mM in place of ethanol): 145 ± 38 nm | Vesicle Size (nm) [6, 12]: 80 nm | Vesicle Size (nm) [6, 13]: 90 nm | Vesicle Size (nm) [6, 14]: 93 nm | Vesicle Size (nm) [6, 15]: 106 nm | Vesicle Size (nm) ([6]; incubation temp 40 °C, 1 hour): 109 nm | Vesicle Size (nm) ([6]; incubation temp 60 °C, 1 hour): 140 nm | Vesicle Size (nm) [6, 16]: 114 nm | Vesicle Size (nm) [6, 9]: 115 nm | Vesicle Size (nm) [6, 17]: 110 nm | Vesicle Size (nm) [6, 10]: 114 nm | Vesicle Size (nm) [6, 18]: 116 nm | Vesicle Size (nm) [6, 11]: 105 nm | Vesicle Size (nm) [6, 19]: 108 nm | size and polydispersity of liposomes ([6]; initial ODN-to-lipid weight ratio of 0.2): 110±30 nm | Vesicle Size (nm) [6, 20]: 106 nm | Vesicle Size (nm) [6, 21]: 112 nm | Vesicle Size (nm) [6, 22]: 110 nm | Vesicle Size (nm) [6, 23]: 106 nm
